Results from ChEMBL document CHEMBL1157187, “Chemical synthesis of 2beta-amino-5alpha-androstane-3alpha,17beta-diol N-derivatives and their antiproliferative effect on HL-60 human leukemia cells” (Bioorg Med Chem, 2008).
Values belong to the compound of their own block, whether it stands above or below them.

What was measured:
HL-60 [1] = experiment: Growth inhibition of human HL60 cells at 1 uM after 3 days; type: functional; details: HL-60, 72 h
HL-60 [2] = experiment: Increase in CD11b/CD14 double expression in human HL60 cells; type: functional
HL-60 [3] = experiment: Increase in CD11b expression in human HL60 cells; type: functional
HL-60 [4] = experiment: Growth inhibition of human HL60 cells at 10 uM after 3 days; type: functional; details: HL-60, 72 h
HL-60 [5] = experiment: Growth inhibition of human HL60 cells after 3 days; type: functional, cell-based; details: HL-60, 72 h

SMILES: CCCCCCCCN[C@H]1C[C@@]2(C)[C@@H](CC[C@@H]3[C@@H]2CC[C@]2(C)[C@@H](O)CC[C@@H]32)C[C@@H]1O
inhibition at 1 µM (HL-60 [1]): 0%
Activity (HL-60 [2]): 10%
Activity (HL-60 [3]): 29%
inhibition at 10 µM (HL-60 [4]): 99.2%
IC50 (HL-60 [5]): 6.4 µM

SMILES: C[C@]12C[C@H](C3NCCc4ccccc43)[C@@H](O)C[C@@H]1CC[C@@H]1[C@@H]2CC[C@]2(C)[C@@H](O)CC[C@@H]12 (some centres undefined)
inhibition at 1 µM (HL-60 [1]): 3.4%
inhibition at 10 µM (HL-60 [4]): 29.6%

SMILES: C[C@]12C[C@H](N3CCN(c4ccccc4)CC3)[C@@H](O)C[C@@H]1CC[C@@H]1[C@@H]2CC[C@]2(C)[C@@H](O)CC[C@@H]12
inhibition at 1 µM (HL-60 [1]): 7%
inhibition at 10 µM (HL-60 [4]): 36.6%

SMILES: CC(C)N[C@H]1C[C@@]2(C)[C@@H](CC[C@@H]3[C@@H]2CC[C@]2(C)[C@@H](O)CC[C@@H]32)C[C@@H]1O
inhibition at 1 µM (HL-60 [1]): 0%
inhibition at 10 µM (HL-60 [4]): 0%

SMILES: CCCN1CCN([C@H]2C[C@@]3(C)[C@@H](CC[C@@H]4[C@@H]3CC[C@]3(C)[C@@H](O)CC[C@@H]43)C[C@@H]2O)CC1
inhibition at 1 µM (HL-60 [1]): 0%
inhibition at 10 µM (HL-60 [4]): 0%

SMILES: CCCCCCCCCCCCN[C@H]1C[C@@]2(C)[C@@H](CC[C@@H]3[C@@H]2CC[C@]2(C)[C@@H](O)CC[C@@H]32)C[C@@H]1O
inhibition at 1 µM (HL-60 [1]): 0%
inhibition at 10 µM (HL-60 [4]): 92%

SMILES: CCCCCCN[C@H]1C[C@@]2(C)[C@@H](CC[C@@H]3[C@@H]2CC[C@]2(C)[C@@H](O)CC[C@@H]32)C[C@@H]1O
inhibition at 1 µM (HL-60 [1]): 0%
inhibition at 10 µM (HL-60 [4]): 6.9%

SMILES: C[C@]12C[C@H](N3CCN(Cc4ccccc4)CC3)[C@@H](O)C[C@@H]1CC[C@@H]1[C@@H]2CC[C@]2(C)[C@@H](O)CC[C@@H]12
inhibition at 1 µM (HL-60 [1]): 0%
inhibition at 10 µM (HL-60 [4]): 25.7%

SMILES: C[C@]12C[C@H](NC3CCCCCC3)[C@@H](O)C[C@@H]1CC[C@@H]1[C@@H]2CC[C@]2(C)[C@@H](O)CC[C@@H]12
inhibition at 1 µM (HL-60 [1]): 0%
inhibition at 10 µM (HL-60 [4]): 0%

SMILES: CCCCC(=O)N1CCN([C@H]2C[C@@]3(C)[C@@H](CC[C@@H]4[C@@H]3CC[C@]3(C)[C@@H](O)CC[C@@H]43)C[C@@H]2O)CC1
inhibition at 1 µM (HL-60 [1]): 0%
inhibition at 10 µM (HL-60 [4]): 7.4%

SMILES: CCCCCN1CCN([C@H]2C[C@@]3(C)[C@@H](CC[C@@H]4[C@@H]3CC[C@]3(C)[C@@H](O)CC[C@@H]43)C[C@@H]2O)CC1
inhibition at 1 µM (HL-60 [1]): 0%
inhibition at 10 µM (HL-60 [4]): 7.7%

SMILES: C[C@]12C[C@H](N3CCN(c4ccc(F)cc4)CC3)[C@@H](O)C[C@@H]1CC[C@@H]1[C@@H]2CC[C@]2(C)[C@@H](O)CC[C@@H]12
inhibition at 1 µM (HL-60 [1]): 0%
inhibition at 10 µM (HL-60 [4]): 10.1%

SMILES: CCCCN[C@H]1C[C@@]2(C)[C@@H](CC[C@@H]3[C@@H]2CC[C@]2(C)[C@@H](O)CC[C@@H]32)C[C@@H]1O
inhibition at 1 µM (HL-60 [1]): 0%
inhibition at 10 µM (HL-60 [4]): 3.1%

SMILES: C[C@]12C[C@H](N3CCOCC3)[C@@H](O)C[C@@H]1CC[C@@H]1[C@@H]2CC[C@]2(C)[C@@H](O)CC[C@@H]12
inhibition at 1 µM (HL-60 [1]): 14.9%
inhibition at 10 µM (HL-60 [4]): 8.7%

SMILES: CCOCCCN[C@H]1C[C@@]2(C)[C@@H](CC[C@@H]3[C@@H]2CC[C@]2(C)[C@@H](O)CC[C@@H]32)C[C@@H]1O
inhibition at 1 µM (HL-60 [1]): 0%
inhibition at 10 µM (HL-60 [4]): 10.8%

SMILES: CCCCOCCCN[C@H]1C[C@@]2(C)[C@@H](CC[C@@H]3[C@@H]2CC[C@]2(C)[C@@H](O)CC[C@@H]32)C[C@@H]1O
inhibition at 1 µM (HL-60 [1]): 4.8%
inhibition at 10 µM (HL-60 [4]): 26.5%

SMILES: C[C@]12C[C@H](n3cccn3)[C@@H](O)C[C@@H]1CC[C@@H]1[C@@H]2CC[C@]2(C)[C@@H](O)CC[C@@H]12
inhibition at 1 µM (HL-60 [1]): 8.4%
inhibition at 10 µM (HL-60 [4]): 12.8%

SMILES: C[C@]12C[C@H](NC3CCCCC3)[C@@H](O)C[C@@H]1CC[C@@H]1[C@@H]2CC[C@]2(C)[C@@H](O)CC[C@@H]12
inhibition at 1 µM (HL-60 [1]): 0%
inhibition at 10 µM (HL-60 [4]): 0%

SMILES: C[C@]12C[C@H](NCCC(c3ccccc3)c3ccccc3)[C@@H](O)C[C@@H]1CC[C@@H]1[C@@H]2CC[C@]2(C)[C@@H](O)CC[C@@H]12
inhibition at 1 µM (HL-60 [1]): 12.9%
Activity (HL-60 [2]): 39%
Activity (HL-60 [3]): 58%
inhibition at 10 µM (HL-60 [4]): 95.2%
IC50 (HL-60 [5]): 3.1 µM

SMILES: C[C@]12C[C@H](N3CCN(c4ccc([N+](=O)[O-])cc4)CC3)[C@@H](O)C[C@@H]1CC[C@@H]1[C@@H]2CC[C@]2(C)[C@@H](O)CC[C@@H]12
inhibition at 1 µM (HL-60 [1]): 12.5%
inhibition at 10 µM (HL-60 [4]): 92.2%

SMILES: CCCC(C)N1CCN([C@H]2C[C@@]3(C)[C@@H](CC[C@@H]4[C@@H]3CC[C@]3(C)[C@@H](O)CC[C@@H]43)C[C@@H]2O)CC1 (some centres undefined)
inhibition at 1 µM (HL-60 [1]): 0%
inhibition at 10 µM (HL-60 [4]): 9.2%

SMILES: CC(C)CC(=O)N1CCN([C@H]2C[C@@]3(C)[C@@H](CC[C@@H]4[C@@H]3CC[C@]3(C)[C@@H](O)CC[C@@H]43)C[C@@H]2O)CC1
inhibition at 1 µM (HL-60 [1]): 0%
inhibition at 10 µM (HL-60 [4]): 5.5%

SMILES: CCN1CCN([C@H]2C[C@@]3(C)[C@@H](CC[C@@H]4[C@@H]3CC[C@]3(C)[C@@H](O)CC[C@@H]43)C[C@@H]2O)CC1
inhibition at 1 µM (HL-60 [1]): 0%
inhibition at 10 µM (HL-60 [4]): 4.8%

SMILES: CCCCCCCCC(=O)N1CCN([C@H]2C[C@@]3(C)[C@@H](CC[C@@H]4[C@@H]3CC[C@]3(C)[C@@H](O)CC[C@@H]43)C[C@@H]2O)CC1
inhibition at 1 µM (HL-60 [1]): 8.1%
inhibition at 10 µM (HL-60 [4]): 99%

SMILES: CCCCCCCN[C@H]1C[C@@]2(C)[C@@H](CC[C@@H]3[C@@H]2CC[C@]2(C)[C@@H](O)CC[C@@H]32)C[C@@H]1O
inhibition at 1 µM (HL-60 [1]): 10.1%
inhibition at 10 µM (HL-60 [4]): 82.3%

SMILES: CCC(=O)N1CCN([C@H]2C[C@@]3(C)[C@@H](CC[C@@H]4[C@@H]3CC[C@]3(C)[C@@H](O)CC[C@@H]43)C[C@@H]2O)CC1
inhibition at 1 µM (HL-60 [1]): 0%
inhibition at 10 µM (HL-60 [4]): 0%

IC50 (HL-60 [5]): 0.1 µM
SMILES: COc1cccc2c1C(=O)c1c(O)c3c(c(O)c1C2=O)C[C@@](O)(C(=O)CO)C[C@@H]3O[C@H]1C[C@H](N)[C@H](O)[C@H](C)O1 [DOXORUBICIN]
inhibition at 1 µM (HL-60 [1]): 91.8%
inhibition at 10 µM (HL-60 [4]): 94.6%

SMILES: CCCCCCCCCN1CCN([C@H]2C[C@@]3(C)[C@@H](CC[C@@H]4[C@@H]3CC[C@]3(C)[C@@H](O)CC[C@@H]43)C[C@@H]2O)CC1
inhibition at 1 µM (HL-60 [1]): 9.1%
Activity (HL-60 [2]): 32%
Activity (HL-60 [3]): 55%
inhibition at 10 µM (HL-60 [4]): 99.8%
IC50 (HL-60 [5]): 4.2 µM

SMILES: C[C@]12C[C@H](N3CCN(CC4CCCCC4)CC3)[C@@H](O)C[C@@H]1CC[C@@H]1[C@@H]2CC[C@]2(C)[C@@H](O)CC[C@@H]12
inhibition at 1 µM (HL-60 [1]): 0%
inhibition at 10 µM (HL-60 [4]): 4%

SMILES: CCCCCCCCCCCN[C@H]1C[C@@]2(C)[C@@H](CC[C@@H]3[C@@H]2CC[C@]2(C)[C@@H](O)CC[C@@H]32)C[C@@H]1O
inhibition at 1 µM (HL-60 [1]): 0%
inhibition at 10 µM (HL-60 [4]): 96.3%

SMILES: CCN(CC)[C@H]1C[C@@]2(C)[C@@H](CC[C@@H]3[C@@H]2CC[C@]2(C)[C@@H](O)CC[C@@H]32)C[C@@H]1O
inhibition at 1 µM (HL-60 [1]): 0%
inhibition at 10 µM (HL-60 [4]): 6.7%

SMILES: C[C@]12C[C@H](N3CCN(CCO)CC3)[C@@H](O)C[C@@H]1CC[C@@H]1[C@@H]2CC[C@]2(C)[C@@H](O)CC[C@@H]12
inhibition at 1 µM (HL-60 [1]): 0.8%
inhibition at 10 µM (HL-60 [4]): 17.7%
